Values of other authors, collected in US11389451B2, “Metolazone emulsion formulation” (ACADEMIC PHARMACEUTICALS, INC., priority 2017, dated 2022).

Conditions: background statement

- solubility in lipids: moderate to high
- solubility in water: low
Structure (SMILES): Cc1ccccc1N1C(=O)c2cc(S(N)(=O)=O)c(Cl)cc2NC1C (centres unmarked) [Metolazone]
